Source: US20110183336A1, “Method to Predict Responsiveness of Breast Cancer to Polyamine-Type Chemotherapy” (THE REGENTS OF THE UNIVERSITY OF CALIFORNIA, priority 2007, published 2011)

Assays:
Assay type in all cases: cell-based, human
T47D cells [1] = test: BrdU incorporation and cell cycle distribution; details: T47D (FIG. 5); 0.3, 10 and 300 uM; 48 and 72 hrs
Procedure: (§1) FIGS. 5A and 5B. Effect of CGC-11047 on T47D cells with respect to cell cycle and apoptosis. In FIG. 5A, cells were treated for 72 hours with 0, 0.3, 10, or 100 μM CGC-11047. Shown are percentage of the cell population is G0-G1, S, or G2-M phase of cell growth. In FIG. 5B, cells were treated for […], 48, or 72 hours with 0.3, 10, or 300 μM CGC-11047. Shown is the caspase activity (apoptosis) of treated cells within each condition compared to untreated controls.
BrdU cell staining and labeling: After incubation of cells with CGC-11047 at specified concentrations for 24, 48, and 72 hours, cells were pulsed with a final BrdU concentration of 10 uM for 30 minutes. Cells were then fixed with −20° C. 70% ethanol overnight. Fixed cells were incubated with 2N HCl for 5-7 minutes to denature DNA. Cell were then rinsed with 1× PBS to neutralize HCl.
Cells were incubated with primary donkey anti-BrdU antibody (diluted 1:100 in 0.5% PBS-tween20) for 1 hour then rinsed well with 0.5% PBS-tween20. Cells were incubated with Hoechst 33642 (diluted 1:2000) and secondary anti-donkey antibody (diluted 1:500) for 45 minutes and washed well with PBS-tween. […]
(§2) Select sensitive cell lines were treated with CGC-11047 at 0.3, 10 and 300 uM. BrdU incorporation was measured and cell cycle distribution was analyzed at 48 and 72 hrs. Apoptosis was measured using the Promega Caspase Glo 3/7 assay.

T47D cells [2] = test: Caspase Glo 3/7 assay (apoptosis); details: T47D (FIG. 5); 0.3, 10 and 300 uM
Procedure: as §1
Caspase Glo assay: Apoptosis was measured using the Promega Caspase Glo 3/7 assay (Promega, Madison, Wis.). Lyophilized pellet was eluted in solvent to make working Caspase Glo reagent. After incubation of cells with CGC-11047 at specified concentrations for 24, 48, and 72 hours, 50 ul of Caspase Glo reagent was added to the wells. After an incubation time of 1 hour, luminescence was measured using a luminometer.
as §2

MDAMB361 = test: Cell growth inhibition assay (Cell Titer Glo); details: MDAMB361, Luminal, 72 h
Procedure: (§3) Cell culture: Breast cell lines were obtained from the ATCC and from collections developed in the laboratories of Drs. Steve Ethier and Adi Gazdar.
(§4) Cell growth inhibition assay and data analysis: Cells were plated at proper density in 96-well plates such that they would remain in log growth at the end of assay time. The cells were allowed to attach overnight before being exposed to CGC-11047 for 72 h. Drugs were dissolved in water as 100 mM stock. For the dose response study, a set of 9 doses from 5×10^−3 to 1.3×10^−8 M (final concentration) in 1:5 serial dilution were added in triplicate wells. The final DMSO concentration in the treated well was 0.3% or less. The cell growth was determined using Cell Titer Glo (CTG) assay (CellTiter-Glo Luminescent Cell Viability Assay, Promega, Madison, Wis.), with slight modification form manufacturer's protocol, at day 0 (time when drug was added) and at day 3 of drug exposure. Briefly, CTG reagent was diluted with PBS (1:1, volume: volume) and the culture media was removed from the 96-well plate prior to adding 50 μl per well of the diluted CTG reagent. Luminescence from the assay was recorded using BIO-TEK FLx800.
(§5) Data calculations were made according to the method described by the NCI/NIH DTP Human Tumor Cell Line Screen Process (http://dtp.nci.nih.gov/branches/btb/ivclsp.html) and as described previously (Monks, A et al., JNCI 83:757-766, 1991). The percent growth curve is calculated as [(T−T0)/(C−T0)]×100, where T0 is the cell count at day 0, C is the vehicle control (e.g. 0.3% DMSO without drug) cell count at day 3, and T is the cell count at the test concentration. The GI50 and TGI value are determined as the drug concentration that results in a 50% and 0% growth at 72 h drug exposure. LC50 is calculated as [(T−T0)/T0]×100=−50, when T<T0.

T47D = test: Cell growth inhibition assay (Cell Titer Glo); details: Luminal, 72 h
Procedure: as §3, §4, §5

184A1 = test: Cell growth inhibition assay (Cell Titer Glo); details: 184A1, HMEC, 72 h
Procedure: as §3, §4, §5

HCC1954 = test: Cell growth inhibition assay (Cell Titer Glo); details: HCC1954, Basal A, 72 h
Procedure: as §3, §4, §5

Hs578T = test: Cell growth inhibition assay (Cell Titer Glo); details: Basal B, 72 h
Procedure: as §3, §4, §5

SUM229PE = test: Cell growth inhibition assay (Cell Titer Glo); details: Basal B, 72 h
Procedure: as §3, §4, §5

HCC2185 = test: Cell growth inhibition assay (Cell Titer Glo); details: HCC2185, Luminal, 72 h
Procedure: as §3, §4, §5

MCF12A = test: Cell growth inhibition assay (Cell Titer Glo); details: N, Basal B, 72 h
Procedure: as §3, §4, §5

MDAMB436 = test: Cell growth inhibition assay (Cell Titer Glo); details: MDAMB436, Basal B, 72 h
Procedure: as §3, §4, §5

ZR751 = test: Cell growth inhibition assay (Cell Titer Glo); details: ZR751, Luminal, 72 h
Procedure: as §3, §4, §5

SUM185PE = test: Cell growth inhibition assay (Cell Titer Glo); details: Luminal, 72 h
Procedure: as §3, §4, §5

SUM159PT = test: Cell growth inhibition assay (Cell Titer Glo); details: Basal B, 72 h
Procedure: as §3, §4, §5

MDAMB415 = test: Cell growth inhibition assay (Cell Titer Glo); details: MDAMB415, Luminal, 72 h
Procedure: as §3, §4, §5

MCF10A = test: Cell growth inhibition assay (Cell Titer Glo); details: N, Basal B, 72 h
Procedure: as §3, §4, §5

SMILES: CCNCCCNC/C=C\CNCCCNCC [CGC-11047]
- cell cycle distribution / BrdU incorporation (T47D cells [1]): very little changes in the cell cycle
- apoptosis (caspase 3/7 activity) (T47D cells [2]): significant accumulation of apoptosis
- GI50 (MDAMB361; Homo sapiens, MDA-MB-361): 600 µM
- TGI (MDAMB361): 2000 µM
- GI50 (T47D; Homo sapiens): 0.4 µM
- TGI (T47D): 200 µM
- TGI (184A1): 220 µM
- GI50 (184A1; Homo sapiens): 2 µM
- TGI (HCC1954): 8 µM
- GI50 (HCC1954; Homo sapiens): 1 µM
- TGI (Hs578T): 500 µM
- GI50 (Hs578T; Homo sapiens, Hs-578T): 0.4 µM
- TGI (SUM229PE): 1100 µM
- GI50 (SUM229PE; Homo sapiens): 90 µM
- TGI (HCC2185): 500 µM
- GI50 (HCC2185; Homo sapiens): 90 µM
- GI50 (MCF12A; Homo sapiens, MCF-12A): 100 µM
- TGI (MCF12A): >100 µM
- GI50 (MDAMB436; Homo sapiens, MDA-MB-436): 1000 µM
- TGI (MDAMB436): 3000 µM
- GI50 (ZR751; Homo sapiens, ZR-75-1): 13 µM
- TGI (ZR751): 800 µM
- GI50 (SUM185PE; Homo sapiens): 300 µM
- TGI (SUM185PE): >500 µM
- TGI (SUM159PT): 3000 µM
- GI50 (SUM159PT; Homo sapiens, SUM-159-PT): 200 µM
- GI50 (MDAMB415; Homo sapiens, MDA-MB-415): 20 µM
- TGI (MDAMB415): 100 µM
- GI50 (MCF10A; Homo sapiens, MCF-10A): 200 µM
- TGI (MCF10A): 3300 µM
